For data set [1] the following is noted: cited from earlier work.
Data set [2] is described as follows: Permeability and efflux ratio of saquinavir across Caco-2 cell monolayers. The note with it: human, pH 7.4, Caco-2 monolayer. The format is in vitro ADME. Here is the method:
Caco-2 cells (ATCC, Manassas, Va.) were kindly provided by Dr. Gunaje Jayarama (Department of Pharmaceutical Sciences, South Dakota State University, Brookings, S. Dak.) at passage #4. Cells were seeded at 1×10^6 cells onto […]®polyester filter membranes (pore size 0.4 um, growth area 4.67 cm^2) in 6 welled sterile plates ([…]®, Corning Costar Corp., Cambridge, Mass.). The cells were grown in DMEM (4.5 g/L glucose) medium supplemented with 20% FBS, 1% non-essential amino acids, I % L-glutamine, streptomycin (100 μg/ml) and penicillin (100 IU/ml). The cultures were maintained in an atmosphere of 5% CO2 and 95% air, and 95% relative humidity at 37° C. (CO2 incubator, Galaxy 170S). The growth medium was changed every day in the first two weeks followed by three times a week until time of use. When reaching confluency, cells were trypsinized and passage numbers 25-35 were used in the experiments. The cells were allowed to differentiate in the […]® filter membrane during 3 weeks in complete growth medium.
The permeability of saquinavir and saquinavir loaded ZLF nanoparticles were studied across Caco-2 cell monolayers in an absorptive direction apical to basolateral (AP-BL) or secretory direction basolateral to apical (BL-AP). Before the permeability experiments, the cell monolayers were rinsed twice with HBSS, pH 7.4, and equilibrated under experimental conditions for 20 min. Then, the apical fluid was replaced by 1.5 ml of experimental solution. Transepithelial electrical resistance (TEER) was measured using an EVOM meter (World Precision Instruments, Inc., Sarasota, Fla.) to ensure monolayer confluence and integrity. TEER was calculated as follows: […]
Where R(Ω) is the measured resistance and A is the surface area (cm^2). […] Results are expressed as apparent permeability coefficient (Papp), calculated according to: […]
Saquinavir content after extraction was analyzed in the samples using the HPLC as recited herein. […]
The ratio of effective permeability for saquinavir or efflux ratio was calculated as follows: […]
A general note: Caco-2 cells form a polarised layer with tight junctions and transporters.

For data set [3] the following is noted: background statement; cited from earlier work.

As usually defined, the Log P is the decadic logarithm of the partition coefficient of the neutral form, usually between octanol and water. As to `CC1=C(/C=C/C(C)=C/C=C/C(C)=C/CO)C(C)(C)CCC1` [Retinol], in data set [1], the “Log P” value was 6.2 and the solubility in water entry is given as “practically insoluble in water”.

As a reminder, the efflux ratio is a quotient of directional permeabilities that is used to spot active efflux. The Papp A→B is how fast a substance crosses the layer from the apical side. The Papp B→A is how fast a substance crosses the layer from the basolateral side. As to `CC(C)(C)NC(=O)[C@@H]1C[C@@H]2CCCC[C@@H]2CN1C[C@@H](O)[C@H](Cc1ccccc1)NC(=O)[C@H](CC(N)=O)NC(=O)c1ccc2ccccc2n1` [Saquinavir], the efflux ratio at 3 h, 20 μM in data set [2] (Papp B-A/Papp A-B) worked out at 16.7. Also, in data set [2] (apical to basolateral, free saquinavir at 20 μM), the Papp A→B at 3 h, 20 μM stood at 0.85 ± 0.21 ×10⁻⁶ cm/s. In data set [2] (basolateral to apical, free saquinavir at 20 μM), the Papp B→A at 3 h, 20 μM turned out to be 14.2 ± 5.3 ×10⁻⁶ cm/s. Besides, in data set [3], the bioavailability is listed as 0.7-4%.

These data come from patent US20150150822A1, “NOVEL CORE-SHELL NANOPARTICLES FOR ORAL DRUG DELIVERY” (South Dakota State University, priority 2013, published 2015).
